Values of other authors in patent US20180177198A1, “PEDICULICIDE FORMULATION BASED ON EUCALYPTUS GLOBULUS ESSENTIAL OIL” (UNIVERSIDAD DE CONCEPCION, priority 2015, published 2018).

Key:
pediculosis = details: in vivo
[1] = not given; remark: listed apart in the source
[2] = system: Pediculus humanus capitis resistant to permethrin

## CC1=CC[C@@H](C(C)(C)O)CC1 [1-α-terpineol]
lice
  pediculicidal effectiveness compared with phenothrin or pyrethrum: as effective as

## CC12CCC(CC1)C(C)(C)O2 [1.8-cineol]
lice
  pediculicidal effectiveness compared with phenothrin or pyrethrum: as effective as

## C=C1C(O)CC2CC1C2(C)C (centres unmarked) [(E)-pinocarveol]
lice
  pediculicidal effectiveness compared with phenothrin or pyrethrum: as effective as

## CC1=CCC2CC1C2(C)C (stereo not drawn) [(−) α-pinene]
lice
  pediculicidal effectiveness compared with phenothrin or pyrethrum: as effective as

## c1ccc([C@H]2CN3CCSC3=N2)cc1 [Levamisol]
pediculosis
  effectiveness in treatment of pediculosis: 19%

## Cl[C@H]1[C@H](Cl)[C@@H](Cl)[C@@H](Cl)[C@H](Cl)[C@H]1Cl [Lindane, gamma benzene hexachloride]
P. capitis
  ovicidal activity: lacks ovicidal activity
In vivo
  average life in the blood stream: 24 h
Topical use
  absorbed by passage into the blood stream: Approximately 10%
[1]; adults
  toxicity range, can be lethal: 28 g
[1]; children below the age of 4, at 1%
  dose causing respiratory depression: 5 mL

## c1ccc2[nH]c(-c3cscn3)nc2c1 [Thiabendazole]
In vivo
  average life (elimination after percutaneous absorption): 70 min

## CC1=CC=C(C(C)C)CC1 [α-terpinene]
lice
  pediculicidal effectiveness compared with phenothrin or pyrethrum: as effective as

## I-phellandrene
lice
  pediculicidal effectiveness compared with phenothrin or pyrethrum: as effective as

## α-dodelactone
[2]
  repellent activity: significant repellent activity
